This is an account of results in US7566462B2, “Stable tablet formulation” (BioMarin Pharmaceutical Inc., priority 2004, dated 2009).

The conditions of series [1]: room temperature; Berneggar and Blau 2002; cited from earlier work.
A short description of series [2]: Solid-state stability and hygroscopicity of polymorph B. The format is physicochemical.

Each structure is given as a SMILES string. A value given as a limit tells only on which side of the number the result lay.

With `C[C@H](O)[C@H](O)[C@H]1CNc2nc(N)[nH]c(=O)c2N1` [BH4, Tetrahydrobiopterin], the shelf-life in series [1] was less than 8 h.
Take `C[C@H](O)[C@H](O)[C@H]1CNc2nc(N)[nH]c(=O)c2N1.Cl.Cl` [polymorph B, (6R)-5,6,7,8-tetrahydrobiopterin dihydrochloride]: in series [2], the hygroscopicity result was “slightly hygroscopic” and the thermodynamic stability result was “highest thermodynamic stability above about 20 °C”. Besides, the “behaviour at high humidity” value in series [2] (percent relative humidity approaches 80%) was “appears to take up much more water, loses its crystalline form, and becomes labile to oxidation”. In series [2] (room temperature, atmospheric oxygen, normal humidity), the “stability of the anhydrous polymorph” value was “stable at room temperature to atmospheric oxygen and normal humidity”.
